Reference: PubChem BioAssay AID1963970 (Molecular Pharmacology Branch, DTP, NCI, 2024)

Tested on: 931267-113-T-J1-PDC multicell spheroid viability
Assay: Anticancer human tumor 931267-113-T-J1-PDC patient-derived colon adenocarcinoma cell line growth inhibition [PI3K]
Conditions: for IC50: curve of first compound; for viability, T/C: stronger effect = lower value
Outline: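 Complex 3D spheroids (cancer cells + endothelial HUVEC + mesenchymal stem cells); drug pairs of targeted agent x inavolisib/alpelisib/duvelisib/copanlisib; half-log series from ~Cmax, max 10 microM if Cmax unknown; endpoint viability.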

[1] = second compound 0.0316 µM, first compound 0.0316 µM
[2] = second compound 0.0316 µM, first compound 0.1 µM
[3] = second compound 0.0316 µM, first compound 0.316 µM
[4] = second compound 0.0316 µM, first compound 1 µM
[5] = second compound 0.0316 µM, first compound 3.16 µM
[6] = second compound 0.0316 µM, first compound 10 µM
[7] = second compound 0.1 µM, first compound 0.0316 µM
[8] = second compound 0.1 µM, first compound 0.1 µM
[9] = second compound 0.1 µM, first compound 0.316 µM
[10] = second compound 0.1 µM, first compound 1 µM
[11] = second compound 0.1 µM, first compound 3.16 µM
[12] = second compound 0.1 µM, first compound 10 µM
[13] = second compound 0.316 µM, first compound 0.0316 µM
[14] = second compound 0.316 µM, first compound 0.1 µM
[15] = second compound 0.316 µM, first compound 0.316 µM
[16] = second compound 0.316 µM, first compound 1 µM
[17] = second compound 0.316 µM, first compound 3.16 µM
[18] = second compound 0.316 µM, first compound 10 µM
[19] = second compound 1 µM, first compound 0.0316 µM
[20] = second compound 1 µM, first compound 0.1 µM
[21] = second compound 1 µM, first compound 0.316 µM
[22] = second compound 1 µM, first compound 1 µM
[23] = second compound 1 µM, first compound 3.16 µM
[24] = second compound 1 µM, first compound 10 µM
[25] = second compound 3.16 µM, first compound 0.0316 µM
[26] = second compound 3.16 µM, first compound 0.1 µM
[27] = second compound 3.16 µM, first compound 0.316 µM
[28] = second compound 3.16 µM, first compound 1 µM
[29] = second compound 3.16 µM, first compound 3.16 µM
[30] = second compound 3.16 µM, first compound 10 µM
[31] = second compound 10 µM, first compound 0.0316 µM
[32] = second compound 10 µM, first compound 0.1 µM
[33] = second compound 10 µM, first compound 0.316 µM
[34] = second compound 10 µM, first compound 1 µM
[35] = second compound 10 µM, first compound 3.16 µM
[36] = second compound 10 µM, first compound 10 µM
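Further: viability read 7 days after compound addition.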

## C#Cc1c(F)ccc2cc(O)cc(-c3ncc4c(N5CC6CCC(C5)N6)nc(OCC56CCCN5CC(F)C6)nc4c3F)c12 (stereo unspecified) + Cc1nc(NC(=O)N2CCCC2C(N)=O)sc1-c1ccnc(C(C)(C)C(F)(F)F)c1
Second compound 0.0316 µM
  IC50: 0.403 µM
Second compound 0.1 µM
  IC50: 0.467 µM
Second compound 0.316 µM
  IC50: 0.183 µM
Second compound 1 µM
  IC50: 0.127 µM
Second compound 3.16 µM
  IC50: 0.104 µM
Second compound 10 µM
  IC50: < 0.0316 µM
[1]
  viability, T/C: 80.2%
[2]
  viability, T/C: 71.2%
[3]
  viability, T/C: 50.4%
[4]
  viability, T/C: 40%
[5]
  viability, T/C: 29.8%
[6]
  viability, T/C: 23.8%
[7]
  viability, T/C: 84.3%
[8]
  viability, T/C: 71.8%
[9]
  viability, T/C: 54.1%
[10]
  viability, T/C: 41.4%
[11]
  viability, T/C: 25.6%
[12]
  viability, T/C: 19.4%
[13]
  viability, T/C: 72.6%
[14]
  viability, T/C: 59.2%
[15]
  viability, T/C: 41.4%
[16]
  viability, T/C: 30.9%
[17]
  viability, T/C: 26.3%
[18]
  viability, T/C: 15.3%
[19]
  viability, T/C: 67.3%
[20]
  viability, T/C: 54.3%
[21]
  viability, T/C: 37.2%
[22]
  viability, T/C: 28.3%
[23]
  viability, T/C: 21%
[24]
  viability, T/C: 13.7%
[25]
  viability, T/C: 67%
[26]
  viability, T/C: 51.9%
[27]
  viability, T/C: 29.4%
[28]
  viability, T/C: 21.2%
[29]
  viability, T/C: 15.8%
[30]
  viability, T/C: 11.5%
[31]
  viability, T/C: 49.1%
[32]
  viability, T/C: 38.7%
[33]
  viability, T/C: 25.2%
[34]
  viability, T/C: 18.8%
[35]
  viability, T/C: 16.9%
[36]
  viability, T/C: 9.04%

## C=CC(=O)N1CCN(c2nc(=O)n(-c3c(C)ccnc3C(C)C)c3nc(-c4c(O)cccc4F)c(F)cc23)C(C)C1 (stereo unspecified) + Cc1nc(NC(=O)N2CCCC2C(N)=O)sc1-c1ccnc(C(C)(C)C(F)(F)F)c1
Second compound 0.0316 µM
  IC50: > 10 µM
Second compound 0.1 µM
  IC50: > 10 µM
Second compound 0.316 µM
  IC50: > 10 µM
Second compound 1 µM
  IC50: > 10 µM
Second compound 3.16 µM
  IC50: > 10 µM
Second compound 10 µM
  IC50: > 10 µM
[1]
  viability, T/C: 86.3%
[2]
  viability, T/C: 91.1%
[3]
  viability, T/C: 99.2%
[4]
  viability, T/C: 104%
[5]
  viability, T/C: 108%
[6]
  viability, T/C: 85.5%
[7]
  viability, T/C: 99.6%
[8]
  viability, T/C: 78.7%
[9]
  viability, T/C: 85.7%
[10]
  viability, T/C: 100%
[11]
  viability, T/C: 105%
[12]
  viability, T/C: 82.7%
[13]
  viability, T/C: 80.6%
[14]
  viability, T/C: 87.2%
[15]
  viability, T/C: 94.1%
[16]
  viability, T/C: 91.8%
[17]
  viability, T/C: 84.7%
[18]
  viability, T/C: 76.9%
[19]
  viability, T/C: 83.5%
[20]
  viability, T/C: 76.6%
[21]
  viability, T/C: 73.9%
[22]
  viability, T/C: 83.7%
[23]
  viability, T/C: 94.7%
[24]
  viability, T/C: 65.6%
[25]
  viability, T/C: 66.3%
[26]
  viability, T/C: 71.3%
[27]
  viability, T/C: 71.1%
[28]
  viability, T/C: 72.7%
[29]
  viability, T/C: 71.2%
[30]
  viability, T/C: 59%
[31]
  viability, T/C: 54.6%
[32]
  viability, T/C: 55.2%
[33]
  viability, T/C: 59.2%
[34]
  viability, T/C: 62.6%
[35]
  viability, T/C: 62.4%
[36]
  viability, T/C: 49%

## CC1(C)CCC(Nc2ncc(C(F)(F)F)c(-c3c[nH]c4c(P(C)(C)=O)c(C#N)ccc34)n2)CN1 (stereo unspecified) + Cc1nc(NC(=O)N2CCCC2C(N)=O)sc1-c1ccnc(C(C)(C)C(F)(F)F)c1
Second compound 0.0316 µM
  IC50: > 10 µM
Second compound 0.1 µM
  IC50: > 10 µM
Second compound 0.316 µM
  IC50: > 10 µM
Second compound 1 µM
  IC50: > 10 µM
Second compound 3.16 µM
  IC50: 9.36 µM
Second compound 10 µM
  IC50: 3.31 µM
[1]
  viability, T/C: 101%
[2]
  viability, T/C: 93.7%
[3]
  viability, T/C: 83.2%
[4]
  viability, T/C: 74.1%
[5]
  viability, T/C: 70.9%
[6]
  viability, T/C: 58.2%
[7]
  viability, T/C: 94.5%
[8]
  viability, T/C: 70.2%
[9]
  viability, T/C: 70.7%
[10]
  viability, T/C: 70.5%
[11]
  viability, T/C: 77.9%
[12]
  viability, T/C: 58%
[13]
  viability, T/C: 79.6%
[14]
  viability, T/C: 79%
[15]
  viability, T/C: 80.4%
[16]
  viability, T/C: 67.6%
[17]
  viability, T/C: 74.5%
[18]
  viability, T/C: 54.6%
[19]
  viability, T/C: 82%
[20]
  viability, T/C: 77.6%
[21]
  viability, T/C: 70.7%
[22]
  viability, T/C: 69.6%
[23]
  viability, T/C: 62.3%
[24]
  viability, T/C: 52.2%
[25]
  viability, T/C: 75%
[26]
  viability, T/C: 65.5%
[27]
  viability, T/C: 60.6%
[28]
  viability, T/C: 63.2%
[29]
  viability, T/C: 61.5%
[30]
  viability, T/C: 46%
[31]
  viability, T/C: 54%
[32]
  viability, T/C: 50.6%
[33]
  viability, T/C: 49.8%
[34]
  viability, T/C: 47%
[35]
  viability, T/C: 52.7%
[36]
  viability, T/C: 30.4%
